Test results: ChEMBL document CHEMBL1156032, “Potent small molecule mouse CD22-inhibitors: exploring the interaction of the residue at C-2 of sialic acid scaffold” (Bioorg Med Chem Lett, 2009)

Assays:
B-cell receptor CD22 = target: T1, B-cell receptor CD22 (Mus musculus, UniProt P35329); experiment: Binding affinity to mouse CD22 after 1 hr by competition ELISA
T1 sequence (P35329 whole entry): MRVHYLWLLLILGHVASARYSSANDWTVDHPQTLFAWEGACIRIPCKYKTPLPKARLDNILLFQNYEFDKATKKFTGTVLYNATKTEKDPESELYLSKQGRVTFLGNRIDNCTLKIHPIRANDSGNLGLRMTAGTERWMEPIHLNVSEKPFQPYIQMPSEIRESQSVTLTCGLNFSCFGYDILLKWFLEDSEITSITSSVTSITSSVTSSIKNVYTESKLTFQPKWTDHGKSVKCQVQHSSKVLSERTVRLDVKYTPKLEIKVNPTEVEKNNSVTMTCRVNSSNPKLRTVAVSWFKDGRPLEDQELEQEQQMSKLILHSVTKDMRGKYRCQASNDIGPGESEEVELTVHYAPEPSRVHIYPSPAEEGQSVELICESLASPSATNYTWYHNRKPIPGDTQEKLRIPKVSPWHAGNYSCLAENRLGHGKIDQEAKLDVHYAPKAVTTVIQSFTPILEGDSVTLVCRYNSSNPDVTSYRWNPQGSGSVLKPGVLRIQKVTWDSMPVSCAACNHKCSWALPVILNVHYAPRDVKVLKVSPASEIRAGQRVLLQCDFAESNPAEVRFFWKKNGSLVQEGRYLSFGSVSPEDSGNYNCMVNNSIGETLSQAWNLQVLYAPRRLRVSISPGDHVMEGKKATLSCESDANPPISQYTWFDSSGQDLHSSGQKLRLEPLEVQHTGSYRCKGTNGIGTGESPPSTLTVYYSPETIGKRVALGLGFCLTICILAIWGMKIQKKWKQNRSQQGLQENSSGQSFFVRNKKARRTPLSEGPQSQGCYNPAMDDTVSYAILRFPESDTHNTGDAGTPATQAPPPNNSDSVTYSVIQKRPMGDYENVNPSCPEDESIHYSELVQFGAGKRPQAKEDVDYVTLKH

[1] = target: T2, B-cell receptor CD22 (Mus musculus) (UniProt P35329); experiment: Ratio of 9-([…]-4-biphenyl)acetamido-9-deoxy- Neu5Gca2-6GalOMP IC50 to compound IC50 for mouse CD22 after 1 hr by competition ELISA
T2 sequence (whole entry): T1 sequence (P35329 whole entry)

Work on `O=C(Cc1ccc(-c2ccc(O)cc2)cc1)NC[C@@H](O)[C@@H](O)[C@@H]1O[C@@](OCc2ccccc2)(C(=O)O)C[C@H](O)[C@@H]1NC(=O)CO` yielded an IC50 (B-cell receptor CD22) of 0.1 µM and a Ratio IC50 [1] of 38.4.

With `COc1ccc(O[C@@H]2O[C@H](CO[C@]3(C(=O)O)C[C@H](O)[C@H](NC(=O)CO)[C@H]([C@H](O)[C@H](O)CN)O3)[C@H](O)[C@H](O)[C@H]2O)cc1` the IC50 (B-cell receptor CD22) was 82.9 µM.

`O=C(Cc1ccc(-c2ccc(O)cc2)cc1)NC[C@@H](O)[C@@H](O)[C@@H]1O[C@@](OCc2ccc(-c3ccccc3)cc2)(C(=O)O)C[C@H](O)[C@@H]1NC(=O)CO` gave an IC50 (B-cell receptor CD22) of 0.19 µM and a Ratio IC50 [1] of 20.2.

For `COc1ccc(O[C@@H]2O[C@H](CO[C@]3(C(=O)O)C[C@H](O)[C@H](NC(=O)CO)[C@H]([C@H](O)[C@H](O)CNC(=O)Cc4ccc(-c5ccc(O)cc5)cc4)O3)[C@H](O)[C@H](O)[C@H]2O)cc1`, the Ratio IC50 [1] was 1.

For `C[Si](C)(C)CCO[C@@H]1O[C@H](CO[C@]2(C(=O)O)C[C@H](O)[C@H](NC(=O)CO)[C@H]([C@H](O)[C@H](O)CO)O2)[C@H](O)[C@H](O)[C@H]1O`, the IC50 (B-cell receptor CD22) was 545 µM.

With `COc1ccc(O[C@@H]2O[C@H](CO[C@]3(C(=O)O)C[C@H](O)[C@H](NC(=O)CO)[C@H]([C@H](O)[C@H](O)CO)O3)[C@H](O)[C@H](O)[C@H]2O)cc1` the IC50 (B-cell receptor CD22) was 305 µM.

Work on `CC(=O)N[C@@H]1[C@H]([C@H](O)[C@H](O)CO)O[C@@](OC[C@H]2O[C@@H](OCC[Si](C)(C)C)[C@H](O)[C@@H](O)[C@H]2O)(C(=O)O)C[C@@H]1O` yielded an IC50 (B-cell receptor CD22) greater than 1000 µM.
